Data as given in publication PMC12406203 (Journal of Medicinal Chemistry, 2025).

How the values were obtained:
Test in all cases: KINOMEscan
Type in all cases: binding
INSR = target: T1, INSR (Homo sapiens, UniProt P06213)
T1 construct: purchased Eurofins DiscoverX, LLC; host or cells: E. coli (T7 phage) or HEK-293

JNK3 = target: T2, JNK3 (Homo sapiens, UniProt P53779)
T2 construct: purchased Eurofins DiscoverX, LLC; host or cells: E. coli (BL21-derived, T7 phage) or HEK-293

LKB1 = target: T3, LKB1 (Homo sapiens, UniProt Q15831)
T3 construct: purchased Eurofins DiscoverX, LLC; host or cells: E. coli (BL21-derived, T7 phage) or HEK-293
T3 sequence (Q15831 1-433): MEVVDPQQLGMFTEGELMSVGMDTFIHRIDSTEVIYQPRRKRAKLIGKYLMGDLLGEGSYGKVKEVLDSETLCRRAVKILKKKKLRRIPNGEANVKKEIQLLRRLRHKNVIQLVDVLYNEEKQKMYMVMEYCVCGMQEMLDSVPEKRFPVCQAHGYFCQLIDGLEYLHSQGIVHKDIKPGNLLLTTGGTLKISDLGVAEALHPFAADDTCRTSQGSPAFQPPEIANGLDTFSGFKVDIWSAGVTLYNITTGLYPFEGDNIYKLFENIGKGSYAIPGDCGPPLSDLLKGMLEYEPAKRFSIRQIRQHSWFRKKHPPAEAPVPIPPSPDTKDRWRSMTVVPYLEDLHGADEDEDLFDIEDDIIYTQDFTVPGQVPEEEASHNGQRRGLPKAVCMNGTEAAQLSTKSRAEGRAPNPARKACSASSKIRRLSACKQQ

MKNK1 = target: T4, MKNK1 (Homo sapiens, UniProt Q9BUB5)
T4 construct: purchased Eurofins DiscoverX, LLC; host or cells: E. coli (BL21-derived, T7 phage) or HEK-293

PIM2 = target: T5, PIM2 (Homo sapiens, UniProt Q9P1W9)
T5 construct: purchased Eurofins DiscoverX, LLC; host or cells: E. coli BL21-derived host (T7 phage) or HEK-293

ULK2 = target: T6, ULK2 (Homo sapiens, UniProt Q8IYT8)
T6 construct: purchased Eurofins DiscoverX, LLC; host or cells: E. coli BL21-derived host (T7 phage) or HEK-293
T6 sequence (Q8IYT8 1-1036): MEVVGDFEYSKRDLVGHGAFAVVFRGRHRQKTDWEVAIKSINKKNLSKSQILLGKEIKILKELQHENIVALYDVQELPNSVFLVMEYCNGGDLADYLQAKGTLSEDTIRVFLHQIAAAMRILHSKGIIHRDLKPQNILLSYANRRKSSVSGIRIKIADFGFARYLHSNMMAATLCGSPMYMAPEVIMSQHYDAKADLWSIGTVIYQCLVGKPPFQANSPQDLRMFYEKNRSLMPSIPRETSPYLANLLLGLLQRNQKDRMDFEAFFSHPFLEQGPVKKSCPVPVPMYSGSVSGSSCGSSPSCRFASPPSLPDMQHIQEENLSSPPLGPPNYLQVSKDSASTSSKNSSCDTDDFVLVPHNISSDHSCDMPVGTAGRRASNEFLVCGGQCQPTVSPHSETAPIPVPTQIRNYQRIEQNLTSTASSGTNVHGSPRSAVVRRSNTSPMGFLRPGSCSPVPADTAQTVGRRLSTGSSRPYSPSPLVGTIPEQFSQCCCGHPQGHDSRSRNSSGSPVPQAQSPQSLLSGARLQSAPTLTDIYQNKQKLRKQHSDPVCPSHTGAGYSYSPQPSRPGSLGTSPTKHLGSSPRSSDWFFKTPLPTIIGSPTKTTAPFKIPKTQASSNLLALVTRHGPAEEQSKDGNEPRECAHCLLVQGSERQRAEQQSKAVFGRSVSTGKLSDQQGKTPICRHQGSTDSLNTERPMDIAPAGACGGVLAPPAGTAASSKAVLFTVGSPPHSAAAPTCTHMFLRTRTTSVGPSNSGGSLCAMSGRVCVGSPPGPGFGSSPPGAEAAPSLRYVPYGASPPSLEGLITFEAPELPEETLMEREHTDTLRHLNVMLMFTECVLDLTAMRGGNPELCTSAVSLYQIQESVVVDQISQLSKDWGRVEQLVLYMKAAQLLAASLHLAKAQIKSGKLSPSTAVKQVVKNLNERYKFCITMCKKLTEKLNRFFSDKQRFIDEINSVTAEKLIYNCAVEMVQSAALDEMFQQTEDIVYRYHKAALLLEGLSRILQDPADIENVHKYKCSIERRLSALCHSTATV

T2 sequence (P53779 whole entry): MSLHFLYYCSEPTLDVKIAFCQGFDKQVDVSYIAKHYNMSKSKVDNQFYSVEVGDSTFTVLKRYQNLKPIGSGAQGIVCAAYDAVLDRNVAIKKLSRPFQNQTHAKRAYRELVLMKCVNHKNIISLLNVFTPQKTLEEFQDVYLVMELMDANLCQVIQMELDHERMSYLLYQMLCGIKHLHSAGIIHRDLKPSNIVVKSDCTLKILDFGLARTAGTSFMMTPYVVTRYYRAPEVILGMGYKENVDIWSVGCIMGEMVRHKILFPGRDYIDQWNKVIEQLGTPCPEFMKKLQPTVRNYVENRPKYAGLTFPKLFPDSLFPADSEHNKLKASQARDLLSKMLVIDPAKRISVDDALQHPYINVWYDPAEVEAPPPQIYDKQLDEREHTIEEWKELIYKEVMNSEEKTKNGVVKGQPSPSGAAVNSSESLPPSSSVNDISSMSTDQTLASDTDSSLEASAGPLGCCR
T1 sequence (P06213 28-1382): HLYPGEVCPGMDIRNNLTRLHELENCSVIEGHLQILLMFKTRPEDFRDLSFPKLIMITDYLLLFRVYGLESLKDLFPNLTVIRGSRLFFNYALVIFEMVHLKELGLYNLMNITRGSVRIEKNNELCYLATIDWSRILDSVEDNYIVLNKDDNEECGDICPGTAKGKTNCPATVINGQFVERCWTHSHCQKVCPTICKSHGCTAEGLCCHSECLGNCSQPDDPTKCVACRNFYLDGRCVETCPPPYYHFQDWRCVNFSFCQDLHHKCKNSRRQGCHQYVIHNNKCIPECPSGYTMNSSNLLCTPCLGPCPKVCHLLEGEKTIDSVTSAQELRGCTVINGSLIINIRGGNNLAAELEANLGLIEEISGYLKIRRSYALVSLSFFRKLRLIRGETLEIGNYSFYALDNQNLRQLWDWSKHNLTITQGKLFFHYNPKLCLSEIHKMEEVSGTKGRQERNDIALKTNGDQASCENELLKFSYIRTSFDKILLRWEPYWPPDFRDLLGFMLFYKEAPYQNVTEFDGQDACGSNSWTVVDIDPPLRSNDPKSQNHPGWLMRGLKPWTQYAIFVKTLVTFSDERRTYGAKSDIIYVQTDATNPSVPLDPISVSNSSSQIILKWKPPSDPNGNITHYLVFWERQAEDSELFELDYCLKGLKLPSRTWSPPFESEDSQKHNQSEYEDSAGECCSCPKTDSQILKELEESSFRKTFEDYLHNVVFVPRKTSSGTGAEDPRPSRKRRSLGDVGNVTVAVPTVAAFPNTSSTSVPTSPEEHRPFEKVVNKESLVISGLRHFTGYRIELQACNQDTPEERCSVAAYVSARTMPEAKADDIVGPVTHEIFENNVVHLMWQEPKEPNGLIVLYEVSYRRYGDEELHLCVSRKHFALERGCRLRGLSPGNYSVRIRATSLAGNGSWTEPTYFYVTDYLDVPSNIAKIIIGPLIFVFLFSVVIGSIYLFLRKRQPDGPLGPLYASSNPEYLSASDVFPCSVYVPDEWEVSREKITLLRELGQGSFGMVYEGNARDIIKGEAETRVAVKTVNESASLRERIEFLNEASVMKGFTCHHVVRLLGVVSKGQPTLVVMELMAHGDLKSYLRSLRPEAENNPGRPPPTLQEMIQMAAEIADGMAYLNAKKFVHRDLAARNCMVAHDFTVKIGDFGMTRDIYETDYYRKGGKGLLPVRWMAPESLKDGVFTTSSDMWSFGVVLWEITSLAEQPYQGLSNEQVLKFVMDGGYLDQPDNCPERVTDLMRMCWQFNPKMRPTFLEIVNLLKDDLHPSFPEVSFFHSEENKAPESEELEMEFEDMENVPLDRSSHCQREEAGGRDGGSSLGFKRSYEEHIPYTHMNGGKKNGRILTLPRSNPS
T5 sequence (Q9P1W9 whole entry): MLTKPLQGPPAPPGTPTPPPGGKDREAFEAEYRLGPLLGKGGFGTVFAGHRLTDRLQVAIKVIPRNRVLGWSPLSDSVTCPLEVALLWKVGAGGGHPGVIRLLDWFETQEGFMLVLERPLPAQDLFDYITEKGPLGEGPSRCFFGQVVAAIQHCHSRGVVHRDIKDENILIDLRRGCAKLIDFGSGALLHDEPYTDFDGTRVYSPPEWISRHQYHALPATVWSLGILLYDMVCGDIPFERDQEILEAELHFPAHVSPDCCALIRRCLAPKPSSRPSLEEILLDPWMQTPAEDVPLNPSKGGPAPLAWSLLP
T4 sequence (Q9BUB5 whole entry): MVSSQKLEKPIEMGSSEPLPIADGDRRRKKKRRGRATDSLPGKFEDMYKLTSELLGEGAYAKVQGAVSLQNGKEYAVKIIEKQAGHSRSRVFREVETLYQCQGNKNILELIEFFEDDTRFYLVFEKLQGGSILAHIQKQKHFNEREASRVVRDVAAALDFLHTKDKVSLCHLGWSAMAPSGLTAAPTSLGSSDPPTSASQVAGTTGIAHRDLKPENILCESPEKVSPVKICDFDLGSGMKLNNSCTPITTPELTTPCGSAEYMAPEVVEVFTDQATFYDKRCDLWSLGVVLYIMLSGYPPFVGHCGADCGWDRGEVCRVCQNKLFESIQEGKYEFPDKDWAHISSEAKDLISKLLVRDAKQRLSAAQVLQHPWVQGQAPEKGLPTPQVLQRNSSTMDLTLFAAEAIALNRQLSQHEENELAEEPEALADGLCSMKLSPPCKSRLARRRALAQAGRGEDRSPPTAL

Row | SMILES | RA @ 1000nM (INSR) [%] | RA @ 10000nM (INSR) [%] | RA @ 1000nM (JNK3) [%] | RA @ 10000nM (JNK3) [%] | RA @ 1000nM (LKB1) [%] | RA @ 10000nM (LKB1) [%] | RA @ 1000nM (MKNK1) [%] | RA @ 10000nM (MKNK1) [%] | RA @ 1000nM (PIM2) [%] | RA @ 10000nM (PIM2) [%] | RA @ 1000nM (ULK2) [%] | RA @ 10000nM (ULK2) [%]
1 | CC(C)Cn1ncc2cc(Cc3ccc(F)cc3F)c(C(=O)NCCN(C)C)cc21 [Compound 94, 5-(2,4-Difluorobenzyl)-N-(2-(dimethylamino)ethyl)-1-isobutyl-1H-indazole-6-carboxamide] | 81 | 90 | 55 | 6.8 | 100 | 96 | 100 | 100 | 100 | 100 | 71 | 88
2 | CN(C)CCNC(=O)c1cc2c(cnn2CC2CCCCC2)cc1Cc1ccc(F)cc1F [Compound 95, 1-(Cyclohexylmethyl)-5-(2,4-difluorobenzyl)-N-(2-(dimethylamino)ethyl)-1H-indazole-6-carboxamide] | 84 | 81 | 48 | 3.7 | 100 | 86 | 100 | 100 | 100 | 100 | 77 | 75
